The values that follow come from patent publication US9345245B2, “Synthetic compounds for vegetative ABA responses” (THE REGENTS OF THE UNIVERSITY OF CALIFORNIA, priority 2012, dated 2016).

SMILES strings stand for the structures.

In one data set the test system is PYR/PYL receptors. The data set can be described thus: Yeast two-hybrid agonist assay (PYR/PYL receptor - PP2C HAB1 interaction). The following applies: 5 uM of test chemicals. In kind it is cell-based, Arabidopsis. As for the experimental part:
FIG. 1. Novel ABA agonists bind to multiple PYR/PYL. (A) Chemical structure of naturally occurring (+)-ABA, its (-) analog and selected ABA agonists. (B) Yeast two-hybrid agonist assays of PYR/PYL receptor sensitivity to 5 uM of test chemicals. Specific PYR/PYL Receptors and the PP2C HAB1 are expressed as Gal4 BD or AD fusion proteins respectively, as described in the text. A previously described yeast two-hybrid system was used in high throughput screens (HTS) to identify ABA agonists (see, Peterson F C, et al. (2010) Structural basis for selective activation of ABA receptors. Nature Structural & Molecular Biology 17(9):1109-1111). In this system the agonist promoted receptor-PP2C interaction drives expression of a URA3 or HIS3 reporter gene and rescues uracil or histidine auxotrophy of parental strains (Peterson F C, et al. (2010); […], Harlow E, & Boeke J D (1996) Reverse two-hybrid and one-hybrid systems to detect dissociation of protein-protein and DNA-protein interactions. Proceedings of the National Academy of Sciences of the United States of America 93(19):10315-10320). HTS were conducted using 5 different reporter strains that express binding domain (BD) fusions to […]3 or PYL4; these were co-expressed with activation domain (AD) fusions to HAB1 (pACT-HAB1); the constructs used have been described previously (Park et al. 2009). […]

The next data set has as its system Chlamydomonas. The data set can be described thus: Colony growth of Chlamydomonas with and without salinity and osmotic stress. It counts as in vivo. The note with it: in vivo. As for the experimental part:
(§1) FIG. 17. The effect of ABA and its agonists in Physcomitrella patens and Chlamydomonas. Protonemal growth images (A) and quantitative analysis (B) of the effects of ABA and agonists on Phsycomitrella patens. Protonema were grown on 200 μM of specific test chemical for 10 days. […] Pyrabactin bleached protonema. (C) The expression of ABA-responsive genes of Physcomitrella patens. Protonema were treated with 200 μM chemical solutions for 3 h. (D) Colony growth of Chlamydomonas on the chemical with salinity stress and osmotic stress. There was no effect of ABA and LC66C6 on the Chlamydomonas growth with and without stresses.

In data set [1] the test system is Physcomitrella patens protonema. The data set is described as follows: Protonema growth of moss. The following applies: 200 μM, 10 days. In kind it is in vivo. On the procedure:
as §1

For the compound `O=S(=O)(NCc1ccccn1)c1ccc(Br)c2ccccc12` [pyrabactin], the “receptor selectivity in yeast two-hybrid assay” value with PYR/PYL receptors is given as “much greater receptor selectivity than ABA or the new agonist LC66C6”. Moreover, the “bleaching of Chlamydomonas (toxicity)” value in the data set with Chlamydomonas is “bleached the Chlamydomonas”. In addition, the “bleaching of protonema (toxicity)” value in data set [1] was “bleached the protonema”.
